Laboratory results reported in patent US8912234B2, “Composition containing resveratrol and/or derivatives thereof and plant oil, process for producing said composition, nutraceutical and/or pharmaceutical product, and method for enhancing the potential of resveratrol” (UNIAO Brasileria de Educacao e Assistencia—Mantenedora da …, priority 2009, dated 2014).

Columns and labels:
[1] = system: edema caused by CFA; assay: Model of polyarthritis induced by CFA in rats; format: in vivo, male Wistar rats; conditions: 100 mg/kg oral, twice a day for 8 days, from day 14 to 21 after CFA; rats (FIG. 7)
[2] = system: depressive behavior associated with the chronic inflammation caused by CFA; assay: Depressive behavior associated with chronic inflammation in mice (tail suspension, time of immobility); format: in vivo, male Swiss mice; conditions: 100 mg/kg oral, 1x a day for 7 days, starting 1 week after CFA; immobility over 6 min; mice (FIG. 9)
Protocol: (§1) To perform the experiments, male Wistar rats (180 to 200 g) or male Swiss mice (25 to 30 g) were used, coming from the animal house of the Federal University of Pelotas (UFPEL; Pelotas, RS). We used 5 to 8 animals per group. The animals were kept in Room 108, located in Block E, of the Vivarium of Building 12, of the PUCRS, on ventilated shelves outfitted with incoming and outgoing air filters (brand Alesco), with controlled temperature (22±1° C.) and light/dark cycle of 12 h (lights turned on at 7:00 a.m.; lights turned off at 7:00 p.m.). Within the shelves, the animals were kept in cages suitable for rodents, filled with pine shavings (changed three times a week). The animals received pelletized ration (brand Nuvilab) and filtered water (filter brand Jojaco) ad libitum. The experiments were conducted in the Applied Pharmacology Laboratory I, located in Block C, Building 12, of the PUCRS. During the experimental procedures, the laboratory temperature was maintained at 22±1° C. […] In this series of experiments, the depressive behavior associated with chronic inflammation in mice was evaluated. […] The increase in volume was measured by plethysmometer, two weeks after the application of the CFA. The difference between the volume of the right and left paws was quantified (in ml) and taken as an indicator of edema. […] The time of immobility was measured for a period of 6 min. […]

[3] = system: edema of the paw caused by carrageenan; assay: Model of acute inflammation by carrageenan in the paw of rats; format: in vivo, male Wistar rats; conditions: 100 mg/kg oral; for inhibition of the edema caused by carrageenan: therapeutic, 120 min after carrageenan, rats (FIG. 5)
[4] = system: edematogenic response caused by CFA; assay: Paw edema of chronic inflammation induced by CFA in mice; format: in vivo, male Swiss mice; conditions: 100 mg/kg oral, 1x a day for 7 days, starting 1 week after CFA; mice (FIG. 9)
Protocol: as §1

Oc1ccc(C=Cc2cc(O)cc(O)c2)cc1 [resveratrol, 3,5,4′-trihydroxystilbene]
inhibition of the formation of edema caused by CFA [1]: 17±5% | depressive behavior (time of immobility) [2]: expressively reduced | inhibition of the edema of the paw caused by carrageenan ([3]; preventive, 30 min prior to carrageenan, vs saline control, rats (FIG. 4)): 31±7% | inhibition of the edema caused by carrageenan ([3]; at 180 min): 35±8% | inhibition of the edema caused by carrageenan ([3]; at 240 min): 45±9% | percentage of reduction of the edematogenic response caused by CFA [4]: 42±4%
